Measured values: patent US8940897B2, “1,3,4-oxadiazole and 1,3,4-thiadiazole β-lactamase inhibitors” (priority 2012, dated 2015)
Where a name gives a salt, the structure may show the parent alone.

System: bacterial strains that express the class D cephalosporinase OXA-15
Assay: Synergy MIC / standard BLI potentiation MIC assay, strains expressing OXA-15;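 also: more active means a lower MIC or sMIC than Avibactam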
Assay type: cell-based, E. coli
Settings: in the presence of a β-lactam; comparator Avibactam (CCC)
Description: Unless otherwise indicated, the activity of the BLI compounds can be described by the MIC value obtained from a Synergy MIC assay or a BLI potentiation assay (e.g as described herein), both of which are run in the presence of a β-lactam.
The experimental protocol was performed according to Clinical and Laboratory Standards Institute (CLSI) guidelines with modifications as described below (CLSI guidelines can be derived from the CLSI document M07-A9 published in January 2012: “Methods for Dilution Antimicrobial Susceptibility Tests for Bacteria That Grow Aerobically; Approved Standard-Ninth Edition”).
To prepare for MIC testing, frozen glycerol stocks of clinical isolates (Klebsiella pneumoniae, Eschericia coli, Enterobacter spp, Citrobacter spp, or Pseudomonas aeruginosa) were used to streak for isolated colonies on rich, non-selective, tryptic soy agar containing 5% sheep's blood (TSAB). Frozen glycerol stocks of laboratory engineered, isogenic E. coli strains, which contain cloned β-lactamase expressing plasmids were used to streak for isolated colonies on rich, selective LB agar supplemented with 25 μg/mL tetracycline to maintain the plasmid. All strains were incubated at 37° C. for 18-24 hrs.
On the day of testing, primary cultures were started by scraping off 5-10 colonies from the TSAB plates containing clinical strains or the tetracycline supplemented LB plates containing engineered strains. The clinical strain material was suspended in ˜5 mL of cation adjusted Mueller Hinton Broth (CAMHB) in 14 mL culture tubes. The engineered strain material was suspended in CAMHB (supplemented with 25 μg/mL tetracycline) in 14 mL culture tubes. All strains were incubated at 37° C. with aeration (200 rpm) for ˜2 hrs until the optical density at 600 nm (OD600) was ≧0.1.
The two compound components of the assay were each diluted in CAMHB and added to the 96-well broth microdilution assay plates. 50 μL of the β-lactam was added to each well of the assay plate in 2-fold dilutions with final concentrations ranging from 128 to 0.13 μg/mL. 25 μL of the BLI compound was added to all wells in the broth microdilution plates at a final concentration of 4 μg/mL. Inoculum cultures were prepared by standardizing the primary cultures to OD600=0.1 and then adding 20 μL of the adjusted primary culture per 1 mL CAMHB for clinical strains or CAMHB (supplemented with tetracycline at 100 μg/mL) for engineered strains, so that the final inoculum density was ˜10^5 colony forming units per milliliter. Diluted inoculum cultures were used to inoculate 25 μl, per well in 96-well broth microdilution assay plates. The final volume of each well was 100 μL and contained a β-lactam at different concentrations, a BLIcompound at 4 μg/mL concentration, the bacterial culture at an OD600 of approximately 0.001 and when necessary tetracycline at 25 μg/mL.
Plates were incubated for 18-20 hours at 37° C. with aeration (200 rpm). Following incubation, growth was confirmed visually placing plates over a viewing apparatus (stand with a mirror underneath) and then OD600 was measured using a SpectraMax 340PC384 plate reader (Molecular Devices, Sunnyvale, Calif.). Growth was defined as turbidity that could be detected with the naked eye or achieving minimum OD600 of 0.1. MIC values were defined as the lowest concentration producing no visible turbidity.
The synergy MIC (sMIC) assay determines the concentration of the BLI required to potentiate the activity of a fixed concentration of a β-lactam antibiotic against β-lactamase producing bacterial strains. The experimental protocol was performed according to Clinical and Laboratory Standards Institute (CLSI) guidelines with modifications as described below (CLSI guidelines can be derived from the CLSI document M07-A9 published in January 2012: “Methods for Dilution Antimicrobial Susceptibility Tests for Bacteria That Grow Aerobically; Approved Standard-Ninth Edition”). […]

SMILES | activity against bacterial strains that express OXA-15 β-lactamase compared with Avibactam
N=C(N)NCc1nnc([C@@H]2CC[C@@H]3CN2C(=O)N3OS(=O)(=O)O)o1 [Compound 704, (2S,5R)-2-(5-(guanidinomethyl)-1,3,4-oxadiazol-2-yl)-7-oxo-1,6-diazabicyclo[3.2.1]octan-6-yl hydrogen sulfate] | more active than Avibactam
Nc1nnc([C@@H]2CC[C@@H]3CN2C(=O)N3OS(=O)(=O)O)o1 [Compound 707, (2S,5R)-2-(5-amino-1,3,4-oxadiazol-2-yl)-7-oxo-1,6-diazabicyclo[3.2.1]octan-6-yl hydrogen sulfate] | more active than Avibactam
N=C(N)N1CCC(c2nnc([C@@H]3CC[C@@H]4CN3C(=O)N4OS(=O)(=O)O)o2)CC1 [Compound 712, (2S,5R)-2-(5-(1-carbamimidoylpiperidin-4-yl)-1,3,4-oxadiazol-2-yl)-7-oxo-1,6-diazabicyclo[3.2.1]octan-6-yl hydrogen sulfate] | more active than Avibactam
O=C1N2C[C@@H](CC[C@H]2c2nnc(N3CCNCC3)o2)N1OS(=O)(=O)O [Compound 713, (2S,5R)-7-oxo-2-(5-(piperazin-1-yl)-1,3,4-oxadiazol-2-yl)-1,6-diazabicyclo[3.2.1]octan-6-yl hydrogen sulfate] | more active than Avibactam
N=C(N)NCCCc1nnc([C@@H]2CC[C@@H]3CN2C(=O)N3OS(=O)(=O)O)o1 [Compound 714, (2S,5R)-2-(5-(3-guanidinopropyl)-1,3,4-oxadiazol-2-yl)-7-oxo-1,6-diazabicyclo[3.2.1]octan-6-yl hydrogen sulfate] | more active than Avibactam
NCC(O)c1nnc([C@@H]2CC[C@@H]3CN2C(=O)N3OS(=O)(=O)O)o1 (stereo partly drawn) [Compound 715, (2S,5R)-2-(5-(2-amino-1-hydroxyethyl)-1,3,4-oxadiazol-2-yl)-7-oxo-1,6-diazabicyclo[3.2.1]octan-6-yl hydrogen sulfate] | more active than Avibactam
NCCNCCc1nnc([C@@H]2CC[C@@H]3CN2C(=O)N3OS(=O)(=O)O)o1 [Compound 716, (2S,5R)-2-(5-(2-((2-aminoethyl)amino)ethyl)-1,3,4-oxadiazol-2-yl)-7-oxo-1,6-diazabicyclo[3.2.1]octan-6-yl hydrogen sulfate] | more active than Avibactam
NCC(N)c1nnc([C@@H]2CC[C@@H]3CN2C(=O)N3OS(=O)(=O)O)o1 (stereo partly drawn) [Compound 717, (2S,5R)-2-(5-(1,2-diaminoethyl)-1,3,4-oxadiazol-2-yl)-7-oxo-1,6-diazabicyclo[3.2.1]octan-6-yl hydrogen sulfate] | more active than Avibactam
O=C1N2C[C@@H](CC[C@H]2c2nnc(C3CCNCC3)s2)N1OS(=O)(=O)O [Compound 719, (2S,5R)-7-oxo-2-(5-(piperidin-4-yl)-1,3,4-thiadiazol-2-yl)-1,6-diazabicyclo[3.2.1]octan-6-yl hydrogen sulfate] | more active than Avibactam
O=C1N2C[C@@H](CC[C@H]2c2nnc(CC3CNC3)o2)N1OS(=O)(=O)O [Compound 725, (2S,5R)-2-(5-(azetidin-3-ylmethyl)-1,3,4-oxadiazol-2-yl)-7-oxo-1,6-diazabicyclo[3.2.1]octan-6-yl hydrogen sulfate] | more active than Avibactam
NCC(O)Cc1nnc([C@@H]2CC[C@@H]3CN2C(=O)N3OS(=O)(=O)O)o1 (stereo partly drawn) [Compound 733, (2S,5R)-2-(5-(3-amino-2-hydroxypropyl)-1,3,4-oxadiazol-2-yl)-7-oxo-1,6-diazabicyclo[3.2.1]octan-6-yl hydrogen sulfate] | more active than Avibactam
N=C(N)N[C@H]1C[C@H](c2nnc([C@@H]3CC[C@@H]4CN3C(=O)N4OS(=O)(=O)O)o2)C1 [Compound 748, (2S,5R)-2-(5-((1r,3S)-3-guanidinocyclobutyl)-1,3,4-oxadiazol-2-yl)-7-oxo-1,6-diazabicyclo[3.2.1]octan-6-yl hydrogen sulfate] | more active than Avibactam
N[C@H]1C[C@H](NCc2nnc([C@@H]3CC[C@@H]4CN3C(=O)N4OS(=O)(=O)O)o2)C1 [Compound 757, (2S,5R)-2-(5-(((1r,3S)-3-aminocyclobutyl)amino)methyl)-1,3,4-oxadiazol-2-yl)-7-oxo-1,6-diazabicyclo[3.2.1]octan-6-yl hydrogen sulfate] | more active than Avibactam
O=C1N2C[C@@H](CC[C@H]2c2nnc(CNC3CCNCC3)o2)N1OS(=O)(=O)O [Compound 769, (2S,5R)-7-oxo-2-(5-((piperidin-4-ylamino)methyl)-1,3,4-oxadiazol-2-yl)-1,6-diazabicyclo[3.2.1]octan-6-yl hydrogen sulfate] | more active than Avibactam
NC1CCN(c2nnc([C@@H]3CC[C@@H]4CN3C(=O)N4OS(=O)(=O)O)o2)CC1 [Compound 773, (2S,5R)-2-(5-(4-aminopiperidin-1-yl)-1,3,4-oxadiazol-2-yl)-7-oxo-1,6-diazabicyclo[3.2.1]octan-6-yl hydrogen sulfate] | more active than Avibactam
O=C1N2C[C@@H](CC[C@H]2c2nnc([C@@H]3CNCCN3)o2)N1OS(=O)(=O)O [Compound 778, (2S,5R)-7-oxo-2-(5-((S)-piperazin-2-yl)-1,3,4-oxadiazol-2-yl)-1,6-diazabicyclo[3.2.1]octan-6-yl hydrogen sulfate] | more active than Avibactam
N[C@H]1CC[C@@H](c2nnc([C@@H]3CC[C@@H]4CN3C(=O)N4OS(=O)(=O)O)o2)CC1 [Compound 780, (2S,5R)-2-(5-((1s,4R)-4-aminocyclohexyl)-1,3,4-oxadiazol-2-yl)-7-oxo-1,6-diazabicyclo[3.2.1]octan-6-yl hydrogen sulfate] | more active than Avibactam
N[C@H]1CC[C@H](c2nnc([C@@H]3CC[C@@H]4CN3C(=O)N4OS(=O)(=O)O)o2)CC1 [Compound 781, (2S,5R)-2-(5-((1r,4S)-4-aminocyclohexyl)-1,3,4-oxadiazol-2-yl)-7-oxo-1,6-diazabicyclo[3.2.1]octan-6-yl hydrogen sulfate] | more active than Avibactam
O=C1N2C[C@@H](CC[C@H]2c2nnc(CCCN3CCNCC3)o2)N1OS(=O)(=O)O [Compound 792, (2S,5R)-7-oxo-2-(5-(3-(piperazin-1-yl)propyl)-1,3,4-oxadiazol-2-yl)-1,6-diazabicyclo[3.2.1]octan-6-yl hydrogen sulfate] | more active than Avibactam
O=C1N2C[C@@H](CC[C@H]2c2nnc(N3CCNCC3)s2)N1OS(=O)(=O)O [Compound 797, (2S,5R)-7-oxo-2-(5-(piperazin-1-yl)-1,3,4-thiadiazol-2-yl)-1,6-diazabicyclo[3.2.1]octan-6-yl hydrogen sulfate] | more active than Avibactam
